{"source": "patent US10472358B2", "about": "“1H-pyrrolo[2,3-c]pyridin-7(6H)-ones and pyrazolo[3,4-c]pyridin-7(6H)-ones as inhibitors of BET proteins” (Incyte Corporation, priority 2014, dated 2019)"}
{"tested_on": "KMS.12.BM cells", "assay": "KMS.12.BM cell viability assay (Cell Titer-GLO, ATP quantitation)", "type": "cell-based", "conditions": "KMS-12-BM, 72 h; human myeloma cells, 3 days, concentration required for 50% cell death", "description": "Example B1: KMS.12.BM Cell Viability Assay\nKMS.12.BM cell line (human myeloma) was purchased from JCRB (Osaka, Japan) and maintained in RPMI with 10% FBS culture medium. To measure the cytotoxic activity of the compounds through ATP quantitation, the KMS.12.BM cells are plated in the RPMI culture medium at 5000 cells/well/per 100 μL into a 96-well polystyrene clear black tissue culture plate (Greiner-bio-one through VWR, NJ), in the presence or absence of a concentration range of test compounds. After 3 days, […] Cell Titer-GLO Luminescent (Promega, Madison, Wis.) cell culture agent is added to each well for 10 minutes at room temperature to stabilize the luminescent signal. This determines the number of viable cells in culture based on quantitation of the ATP present, which signals the presence of metabolically active cells. Luminescence is measured with the Top Count 384 (Packard Bioscience through Perkin Elmer, Boston, Mass.). Compound inhibition is determined relative to cells cultured with no drug and the IC50 is reported as the compound concentration required for 50% cell death.", "units": {"IC50": "nM"}}
{"smiles": "CC(C)C1Oc2c(-c3cn(C)c(=O)c4[nH]ccc34)cc(C(N)=O)cc2N(C)C1=O", "note": "(stereo not drawn) [Example 19, 2-isopropyl-4-methyl-8-(6-methyl-7-oxo-6,7-dihydro-1H-pyrrolo[2,3-c]pyridin-4-yl)-3-oxo-3,4-dihydro-2H-1,4-benzoxazine-6-carboxamide]", "IC50": "≤ 1000"}
{"smiles": "CNC(=O)c1cc2c(c(-c3cn(C)c(=O)c4[nH]ccc34)c1)OC(C(C)C)C(=O)N2", "note": "(stereo not drawn) [Example 20, 2-isopropyl-N-methyl-8-(6-methyl-7-oxo-6,7-dihydro-1H-pyrrolo[2,3-c]pyridin-4-yl)-3-oxo-3,4-dihydro-2H-1,4-benzoxazine-6-carboxamide]", "IC50": "≤ 1000"}
{"smiles": "CC(C)C1Oc2c(cc([N+](=O)[O-])cc2-c2cn(C)c(=O)c3[nH]ccc23)NC1=O", "note": "(stereo not drawn) [Example 21, 2-isopropyl-8-(6-methyl-7-oxo-6,7-dihydro-1H-pyrrolo[2,3-c]pyridin-4-yl)-6-nitro-2H-1,4-benzoxazin-3(4H)-one]", "IC50": "≤ 1000"}
{"smiles": "COc1cc(-c2cn(C)c(=O)c3[nH]ccc23)c2c(c1)N(C)CC(C(C)C)O2", "note": "(stereo not drawn) [Example 22, 4-(2-isopropyl-6-methoxy-4-methyl-3,4-dihydro-2H-1,4-benzoxazin-8-yl)-6-methyl-1,6-dihydro-7H-pyrrolo[2,3-c]pyridin-7-one]", "IC50": "1000 to 10000"}
{"smiles": "COc1cc2c(c(-c3cn(C)c(=O)c4[nH]ccc34)c1)OC(C1CC1)C(=O)N2", "note": "(stereo not drawn) [Example 23, 2-cyclopropyl-6-methoxy-8-(6-methyl-7-oxo-6,7-dihydro-1H-pyrrolo[2,3-c]pyridin-4-yl)-2H-1,4-benzoxazin-3(4H)-one]", "IC50": "1000 to 10000"}
{"smiles": "COc1cc2c(c(-c3cn(C)c(=O)c4[nH]ccc34)c1)OC(c1ccccc1)C(=O)N2", "note": "(stereo not drawn) [Example 24, 6-methoxy-8-(6-methyl-7-oxo-6,7-dihydro-1H-pyrrolo[2,3-c]pyridin-4-yl)-2-phenyl-2H-1,4-benzoxazin-3(4H)-one]", "IC50": "≤ 1000"}
{"smiles": "COc1cc2c(c(-c3cn(C)c(=O)c4[nH]ccc34)c1)OC(c1ccc(F)cc1Cl)C(=O)N2", "note": "(stereo not drawn) [Example 25, 2-(2-chloro-4-fluorophenyl)-6-methoxy-8-(6-methyl-7-oxo-6,7-dihydro-1H-pyrrolo[2,3-c]pyridin-4-yl)-2H-1,4-benzoxazin-3(4H)-one]", "IC50": "≤ 1000"}
{"smiles": "COc1cc2c(c(-c3cn(C)c(=O)c4[nH]ncc34)c1)OC(C(C)C)C(=O)N2", "note": "(stereo not drawn) [Example 26, 2-isopropyl-6-methoxy-8-(6-methyl-7-oxo-6,7-dihydro-1H-pyrazolo[3,4-c]pyridin-4-yl)-2H-1,4-benzoxazin-3(4H)-one]", "IC50": "≤ 1000"}
{"smiles": "COc1cc2c(c(-c3cn(C)c(=O)c4[nH]ccc34)c1)OC(C)(C)C(=O)N2", "note": "[Example 27, 6-methoxy-2,2-dimethyl-8-(6-methyl-7-oxo-6,7-dihydro-1H-pyrrolo[2,3-c]pyridin-4-yl)-2H-1,4-benzoxazin-3(4H)-one]", "IC50": "≤ 1000"}
{"smiles": "CC(C)C1Oc2c(cc(-c3cnn(C)c3)cc2-c2cn(C)c(=O)c3[nH]ccc23)NC1=O", "note": "(stereo not drawn) [Example 28, 2-isopropyl-8-(6-methyl-7-oxo-6,7-dihydro-1H-pyrrolo[2,3-c]pyridin-4-yl)-6-(1-methyl-1H-pyrazol-4-yl)-2H-1,4-benzoxazin-3(4H)-one]", "IC50": "≤ 1000"}
{"smiles": "COc1cc2c(c(-c3cn(C)c(=O)c4[nH]ncc34)c1)OC(C)(C)C(=O)N2", "note": "[Example 29, 6-methoxy-2,2-dimethyl-8-(6-methyl-7-oxo-6,7-dihydro-1H-pyrazolo[3,4-c]pyridin-4-yl)-2H-1,4-benzoxazin-3(4H)-one]", "IC50": "≤ 1000"}
{"smiles": "Cn1cc(-c2cccc3c2OC2(CC2)C(=O)N3)c2cc[nH]c2c1=O", "note": "[Example 30, 8-(6-methyl-7-oxo-6,7-dihydro-1H-pyrrolo[2,3-c]pyridin-4-yl)spiro[1,4-benzoxazine-2,1′-cyclopropan]-3(4H)-one]", "IC50": "≤ 1000"}
{"smiles": "Cn1cc(-c2cccc3c2OC(C)(C)C(=O)N3)c2cc[nH]c2c1=O", "note": "[Example 31, 2,2-dimethyl-8-(6-methyl-7-oxo-6,7-dihydro-1H-pyrrolo[2,3-c]pyridin-4-yl)-2H-1,4-benzoxazin-3(4H)-one]", "IC50": "≤ 1000"}
{"smiles": "Cn1cc(-c2cccc3c2NC(C)(C)C(=O)N3)c2cc[nH]c2c1=O", "note": "[Example 32, 3,3-dimethyl-5-(6-methyl-7-oxo-6,7-dihydro-1H-pyrrolo[2,3-c]pyridin-4-yl)-3,4-dihydroquinoxalin-2(1H)-one]", "IC50": "≤ 1000"}
{"smiles": "CC(C)C1Oc2c(cc(C(=O)N3CCOCC3)cc2-c2cn(C)c(=O)c3[nH]ccc23)NC1=O", "note": "(stereo not drawn) [Example 33, 2-isopropyl-8-(6-methyl-7-oxo-6,7-dihydro-1H-pyrrolo[2,3-c]pyridin-4-yl)-6-(morpholin-4-ylcarbonyl)-2H-1,4-benzoxazin-3(4H)-one]", "IC50": "≤ 1000"}
{"smiles": "CC(C)C1Oc2c(cc(C(=O)N(C)C)cc2-c2cn(C)c(=O)c3[nH]ccc23)NC1=O", "note": "(stereo not drawn) [Example 34, 2-isopropyl-N,N-dimethyl-8-(6-methyl-7-oxo-6,7-dihydro-1H-pyrrolo[2,3-c]pyridin-4-yl)-3-oxo-3,4-dihydro-2H-1,4-benzoxazine-6-carboxamide]", "IC50": "≤ 1000"}
{"smiles": "COc1cc2c(c(-c3cn(C)c(=O)c4[nH]ccc34)c1)OC(C1CCCC1)C(=O)N2", "note": "(stereo not drawn) [Example 35, 2-cyclopentyl-6-methoxy-8-(6-methyl-7-oxo-6,7-dihydro-1H-pyrrolo[2,3-c]pyridin-4-yl)-2H-1,4-benzoxazin-3(4H)-one]", "IC50": "≤ 1000"}
{"smiles": "CC(C)C1Oc2c(cc(CO)cc2-c2cn(C)c(=O)c3[nH]ccc23)NC1=O", "note": "(stereo not drawn) [Example 36, 6-(hydroxymethyl)-2-isopropyl-8-(6-methyl-7-oxo-6,7-dihydro-1H-pyrrolo[2,3-c]pyridin-4-yl)-2H-1,4-benzoxazin-3(4H)-one]", "IC50": "≤ 1000"}
{"smiles": "COCc1cc2c(c(-c3cn(C)c(=O)c4[nH]ccc34)c1)OC(C(C)C)C(=O)N2", "note": "(stereo not drawn) [Example 37, 2-isopropyl-6-(methoxymethyl)-8-(6-methyl-7-oxo-6,7-dihydro-1H-pyrrolo[2,3-c]pyridin-4-yl)-2H-1,4-benzoxazin-3(4H)-one]", "IC50": "≤ 1000"}
{"smiles": "CC(=O)NCc1cc2c(c(-c3cn(C)c(=O)c4[nH]ccc34)c1)OC(C(C)C)C(=O)N2", "note": "(stereo not drawn) [Example 40, N-{[2-isopropyl-8-(6-methyl-7-oxo-6,7-dihydro-1H-pyrrolo[2,3-c]pyridin-4-yl)-3-oxo-3,4-dihydro-2H-1,4-benzoxazin-6-yl]methyl}acetamide]", "IC50": "≤ 1000"}
{"smiles": "CC(C)C1Oc2c(cc(C(N)=O)cc2-c2cn(C)c(=O)c3[nH]ccc23)NC1=O", "note": "(stereo not drawn) [Example 41, 2-isopropyl-8-(6-methyl-7-oxo-6,7-dihydro-1H-pyrrolo[2,3-c]pyridin-4-yl)-3-oxo-3,4-dihydro-2H-1,4-benzoxazine-6-carboxamide]", "IC50": "≤ 1000"}
{"smiles": "COc1cc2c(c(-c3cn(C)c(=O)c4[nH]ncc34)c1)OC(C1CCCC1)C(=O)N2", "note": "(stereo not drawn) [Example 42, 2-Cyclopentyl-6-methoxy-8-(6-methyl-7-oxo-6,7-dihydro-1H-pyrazolo[3,4-c]pyridin-4-yl)-2H-1,4-benzoxazin-3(4H)-one]", "IC50": "≤ 1000"}
{"smiles": "CC(C)C1Oc2c(cc(S(C)(=O)=O)cc2-c2cn(C)c(=O)c3[nH]ccc23)NC1=O", "note": "(stereo not drawn) [Example 44, 2-isopropyl-8-(6-methyl-7-oxo-6,7-dihydro-1H-pyrrolo[2,3-c]pyridin-4-yl)-6-(methylsulfonyl)-2H-1,4-benzoxazin-3(4H)-one]", "IC50": "≤ 1000"}
{"smiles": "Cn1cc(-c2cc(S(C)(=O)=O)cc3c2OC(C)(C)C(=O)N3)c2cc[nH]c2c1=O", "note": "[Example 45, 2,2-dimethyl-8-(6-methyl-7-oxo-6,7-dihydro-1H-pyrrolo[2,3-c]pyridin-4-yl)-6-(methylsulfonyl)-2H-1,4-benzoxazin-3(4H)-one]", "IC50": "≤ 1000"}
{"smiles": "CC(C)C1Oc2c(-c3cn(C)c(=O)c4[nH]ccc34)cc(S(C)(=O)=O)cc2N(C)C1=O", "note": "(stereo not drawn) [Example 47, 2-isopropyl-4-methyl-8-(6-methyl-7-oxo-6,7-dihydro-1H-pyrrolo[2,3-c]pyridin-4-yl)-6-(methylsulfonyl)-2H-1,4-benzoxazin-3(4H)-one]", "IC50": "≤ 1000"}
{"smiles": "Cn1cc(-c2cc(S(C)(=O)=O)cc3c2OC(CCO)C(=O)N3)c2cc[nH]c2c1=O", "note": "(stereo not drawn) [Example 48, 2-(2-hydroxyethyl)-8-(6-methyl-7-oxo-6,7-dihydro-1H-pyrrolo[2,3-c]pyridin-4-yl)-6-(methylsulfonyl)-2H-1,4-benzoxazin-3(4H)-one]", "IC50": "≤ 1000"}
{"smiles": "CC(O)c1cc2c(c(-c3cn(C)c(=O)c4[nH]ccc34)c1)OC(C(C)C)C(=O)N2", "note": "(stereo not drawn) [Example 50, 6-(1-hydroxyethyl)-2-isopropyl-8-(6-methyl-7-oxo-6,7-dihydro-1H-pyrrolo[2,3-c]pyridin-4-yl)-2H-1,4-benzoxazin-3(4H)-one]", "IC50": "≤ 1000"}
{"smiles": "CCS(=O)(=O)c1cc2c(c(-c3cn(C)c(=O)c4[nH]ccc34)c1)OC(C(C)C)C(=O)N2", "note": "(stereo not drawn) [Example 51, 6-(ethylsulfonyl)-2-isopropyl-8-(6-methyl-7-oxo-6,7-dihydro-1H-pyrrolo[2,3-c]pyridin-4-yl)-2H-1,4-benzoxazin-3(4H)-one]", "IC50": "≤ 1000"}
{"smiles": "CC(C)C1Oc2c(cc(S(=O)(=O)C(C)C)cc2-c2cn(C)c(=O)c3[nH]ccc23)NC1=O", "note": "(stereo not drawn) [Example 52, 2-isopropyl-6-(isopropylsulfonyl)-8-(6-methyl-7-oxo-6,7-dihydro-1H-pyrrolo[2,3-c]pyridin-4-yl)-2H-1,4-benzoxazin-3(4H)-one]", "IC50": "≤ 1000"}
{"smiles": "CC(C)C1Oc2c(-c3cn(C)c(=O)c4[nH]ccc34)cc(S(C)(=O)=O)cc2N(CC2CC2)C1=O", "note": "(stereo not drawn) [Example 53, 4-(cyclopropylmethyl)-2-isopropyl-8-(6-methyl-7-oxo-7-dihydro-1H-pyrrolo[2,3-c]pyridin-4-yl)-6-(methylsulfonyl)-2H-1,4-benzoxazin-3(4H)-one]", "IC50": "≤ 1000"}
